Values after ≈ are worked out from the molar mass of the structure shown.
conditions: buffer; pH 7.4; 200.0 µM

SMILES	solubility kinetic
O=C(NCc1ccc(F)cc1)Nc1cccc([N+](=O)[O-])c1	1 µg/mL (≈ 3.46 µM)
NC1=NC(c2ccccc2)=NC1(NC(=O)c1ccccc1)C(Cl)Cl (centres undefined)	44.4 µg/mL (≈ 123 µM)
CC(=O)c1c(C)[nH]c(C(=O)COC(=O)C2(C)CC2(Cl)Cl)c1C (centres undefined)	11.9 µg/mL (≈ 34.4 µM)
O=C(N/N=C/c1ccc([N+](=O)[O-])o1)C1CCCC1	> 37.7 µg/mL
CCCCCc1ccc(CC(=O)N2CCOCC2)cc1	38.6 µg/mL (≈ 140 µM)
CCN1C(=O)c2ccc(C(=O)Nc3ccc(O)cc3C)cc2C1=O	> 48.7 µg/mL
COc1ccc(NC(=O)NCCCCc2ccccc2)c(OC)c1	0.7 µg/mL (≈ 2.13 µM)
Cc1ccc(-c2noc(-c3c(C)noc3C)n2)cc1	< 0.2 µg/mL
Cc1ccc(NC(=O)COC(=O)[C@@H]2CC(O)CN2S(=O)(=O)c2ccc3c(c2)OCCO3)cc1 (some centres undefined)	> 71.5 µg/mL
COc1cc2c(cc1OC)CN(c1ccc(F)cc1[N+](=O)[O-])CC2	17.8 µg/mL (≈ 53.6 µM)
N/C(=N\C(=S)Nc1ccccc1)c1ccccc1	> 38.3 µg/mL
CC(=O)N1CCOCCOCCN(C(C)=O)CCOCC1	> 45.4 µg/mL
Cc1ccc(C(=O)OCC(=O)Nc2ccc(F)c(Cl)c2)o1	2.9 µg/mL (≈ 9.3 µM)
O=C(Nc1ccc(NC(=O)c2ccccc2O)cc1)Nc1ccc(F)cc1F	1.1 µg/mL (≈ 2.87 µM)
CC1CC(C)CN(CCOc2cccc3ccccc23)C1 (centres undefined)	34.1 µg/mL (≈ 120 µM)
CCCNC(=O)c1oc2ccc3c(c2c1C)C=CC(C)(C)O3	14.2 µg/mL (≈ 47.4 µM)
Cc1nc(SCC(=O)NC2CCCCC2C)nc(C)c1C (centres undefined)	> 46.1 µg/mL
CC(C)(C)c1ccc(-c2noc(CCC(=O)N3CCOCC3)n2)cc1	44.2 µg/mL (≈ 129 µM)
O=C(OCC(=O)N1CCc2ccccc21)c1ccc[nH]c1=O	8.6 µg/mL (≈ 28.8 µM)
COCCNc1nc(N)c([N+](=O)[O-])c(NC2CCCCC2)n1	7.2 µg/mL (≈ 23.2 µM)

SMILES	solubility kinetic
COc1ccc(S(=O)(=O)N2CCCCC2)cc1NS(=O)(=O)c1ccc(CNC(C)=O)cc1	62.5 µg/mL (≈ 130 µM)
COc1cccc(/C=C(\CC(=O)O)c2nc3ccccc3s2)c1	41.1 µg/mL (≈ 126 µM)
CC(=O)Oc1ccc(C(=O)Nc2cccnc2)cc1	> 38.4 µg/mL
Cc1ccc2nc(Br)c3c(c2c1)OC(CBr)C3 (centres undefined)	9.7 µg/mL (≈ 27.2 µM)
CC(C)(C)NC(=O)c1cccnc1Sc1ccccc1	> 43 µg/mL
O=C(CS(=O)CC(=O)Nc1cccnc1)Nc1ccc(F)cc1 (centres undefined)	> 50.3 µg/mL
CC1CCCC(C)N1/N=C/c1ccc(C#N)cc1 (centres undefined)	> 36.2 µg/mL
Nc1ccccc1Nc1c(F)c(F)nc(F)c1Cl	37.6 µg/mL (≈ 137 µM)
Cc1ccc(NC(=O)c2ccc3c(c2)OCO3)cc1Cl	0.9 µg/mL (≈ 3.11 µM)
O=C(Nc1cccc2c1CCCC2)c1ccccc1Br	< 0.7 µg/mL
O=C(Cc1cccc2ccccc12)Nc1c(F)cccc1F	1.2 µg/mL (≈ 4.04 µM)
COc1ccc2o/c(=N\O)c(C(=O)Nc3ccc(C)cc3)cc2c1	11.7 µg/mL (≈ 36.1 µM)
O=C(O)CSc1nccc2ccccc12	> 32.9 µg/mL
CCOC(=O)N1CCc2c(sc3ncn(C)c(=O)c23)C1	36.7 µg/mL (≈ 125 µM)
COc1cc(/C=C2\SC(N)=NC2=O)cc(OC)c1	3.8 µg/mL (≈ 14.4 µM)
CCOC(=O)CCSc1cc(C)c2ccccc2n1	4.3 µg/mL (≈ 15.6 µM)
COc1ccccc1CC(=O)NC(=O)c1ccccc1O	41.5 µg/mL (≈ 145 µM)
C/C(=N\NC(=O)CCC(=O)NCc1ccccc1)c1ccco1	> 47 µg/mL
COc1ccc(CC(=O)N2CCN(c3ccccc3)CC2)cc1	31.7 µg/mL (≈ 102 µM)
CN(C)c1ccc(CN2CCC(C(N)=O)CC2)cc1.O=C(O)C(=O)O	> 52.7 µg/mL

SMILES	solubility kinetic
Cc1ccccc1NS(=O)(=O)c1ccc(C(=O)N(C)CC(=O)Nc2ccccc2Br)cc1	73 µg/mL (≈ 141 µM)
COc1ccc(CSc2nc(C)cc(C)c2C#N)cc1	2.7 µg/mL (≈ 9.49 µM)
Cc1cc(C)cc(NC(=O)CN2CCN(c3ccccn3)CC2)c1	2.8 µg/mL (≈ 8.63 µM)
CC1CCCN(C(=O)COC(=O)Cc2c(F)cccc2Cl)C1 (centres undefined)	40.9 µg/mL (≈ 125 µM)
CN(Cc1ccccc1)S(=O)(=O)c1ccc(Cl)c(C(=O)OCC(=O)NC2CCS(=O)(=O)C2)c1 (centres undefined)	18 µg/mL (≈ 35 µM)
Cc1ccc(NC(=O)COC(=O)CCc2ccccc2)c(Cl)c1	6.9 µg/mL (≈ 20.8 µM)
N=c1oc2cc(O)ccc2cc1C(=O)Nc1ccc(Cl)cc1	1.1 µg/mL (≈ 3.5 µM)
CCc1ccccc1NS(=O)(=O)c1cccc2nsnc12	44.8 µg/mL (≈ 140 µM)
COc1ccc(/C=C(\C#N)C(=O)OC2CCOC2=O)cc1 (centres undefined)	> 43.1 µg/mL
O=C(NCC(=O)N1CCCCCC1)c1ccc(Cl)cc1	> 44.2 µg/mL
Cc1cccc(/C(N)=N/OC(=O)c2ccoc2C)c1	38 µg/mL (≈ 147 µM)
COc1ccc(CNC2CCN(Cc3ccccc3)CC2)cc1	> 46.6 µg/mL
COc1cccc(N2CCN(Cc3ccco3)CC2)c1	30.8 µg/mL (≈ 113 µM)
COc1ccccc1N(CC(=O)Nc1ccc(C)cc1Cl)S(=O)(=O)c1cccs1	6.9 µg/mL (≈ 15.3 µM)
O=C(COc1ccc(F)cc1)N1CCCc2ccccc21	33.6 µg/mL (≈ 118 µM)
CCN(CC)CCOC(=O)c1ccc([N+](=O)[O-])cc1.Cl	> 45.4 µg/mL
CC(C)CN1C(=O)c2ccc(NC(=O)c3ccco3)cc2C1=O	4.2 µg/mL (≈ 13.4 µM)
CCc1ccccc1NC(=O)Nc1cnccn1	6.1 µg/mL (≈ 25.2 µM)
C=CCOc1cccc(C(=O)NC(c2ccccc2)C(C)C)c1 (centres undefined)	1.2 µg/mL (≈ 3.88 µM)

Reference: PubChem BioAssay AID1996
